The text below walks through data of patent US6645976B1 (Eli Lilly and Company, priority 1994, dated 2003).

In data set [1] the target is T1, recombinant human secreted phospholipase A2 (Homo sapiens, UniProt P14555).
T1 sequence (P14555 21-144): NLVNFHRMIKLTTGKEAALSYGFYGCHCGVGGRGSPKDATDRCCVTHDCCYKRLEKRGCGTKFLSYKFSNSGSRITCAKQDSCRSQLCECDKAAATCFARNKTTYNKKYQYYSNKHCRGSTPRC
Briefly: sPLA2 Chromogenic Assay (Assay 1). Type of data set: biochemical. The following applies: diheptanoyl thio-PC substrate, pH 7.5, 40° C. for 30 minutes, absorbance at 405 nanometers.

pIC50: −log10 of the molar value.

`CCc1c(C(=O)C(N)=O)c2c(OCC(=O)OCC(=O)OC(C)(C)C)cccn2c1Cc1ccccc1-c1ccccc1` [Compound 59d]: the melting point (in general, the temperature of the solid-liquid transition) lay in the range of 102 to 104 °C. In addition, the pIC50 (in general, the negative decadic logarithm of the IC50, by convention in mol/L) in data set [1] is 7.08.

As for `CCc1c(C(=O)C(N)=O)c2c(OCC(=O)OC(C)OC(=O)OC3CCCC3)cccn2c1Cc1ccccc1-c1ccccc1` (centres unmarked) [Compound 59g, 2-(3-Biphenyl-2-ylmethyl-8-(1-cyclopentyloxycarbonyloxyethyloxycarbonylmethyloxy)-2-ethylindolizin-1-yl)glyoxylamide], the melting point lay within 74 to 80 °C. Besides, in data set [1], the pIC50 is 7.41.

In turn, `CCc1c(C(=O)C(N)=O)c2c(OCC(=O)O)cccn2c1CC=Cc1ccccc1` [Compound 58h, 2-(8-Carboxymethyloxy-2-ethyl-^3-(3-phenyl-2-propenyl)indlolin-1-yl)glyoxylamide] displayed a melting point of 222 to 224 °C. Further, in data set [1], the pIC50 is 7.42.

Regarding `Cc1c(C(=O)C(N)=O)c2ccccn2c1Cc1ccccc1` [Compound 34, (3-Benzyl-2-methylindolizin-1-yl)glyoxylamide], the melting point was 198 to 199 °C. In addition, the pIC50 in data set [1] was 6.05.

As to `CCCCc1ccc(Cc2c(CC)c(C(=O)C(N)=O)c3c(OCC(=O)OC)cccn23)cc1` [Compound 51s, 2-(3-(p-n-Butylbenzyl)-8-(carbomethoxymethyloxy)-2-ethylindolizin-1-yl)glyoxylamide], the melting point lay in the range of 174 to 176 °C. The pIC50 in data set [1] was 6.82.

As to `CCc1c(C(=O)C(N)=O)c2c(OCC(=O)OCCN3CCOCC3)cccn2c1Cc1ccccc1-c1ccccc1` [Compound 59i, 2-(3-(Biphenyl-2-yl-methyl)-2-ethyl-8-(2-morpholinoethyloxycarbonylmethyloxy)indolizine-1-yl)glyoxylamide], the melting point was 113 to 120 °C (dec.). Further, in data set [1], the pIC50 is 7.66.

In the case of `CCc1c(C(=O)C(N)=O)c2c(OCC(=O)OC)cccn2c1CC1CCCCC1` [Compound 51b, 2-(8-(Carbomethoxymethyloxy)-3-cyclohexylmethyl-2-ethylindolizin-1-yl)glyoxylamide], the melting point is 149 to 150 °C. In addition, the pIC50 in data set [1] is 6.51.

As to `CCc1c(C(=O)C(N)=O)c2c(OCc3nnn[nH]3)cccn2c1Cc1ccccc1-c1ccccc1` [Compound 59m, 2-(3-(Biphenyl-2-yl-methyl)-2-ethyl-8-(1H-tetracol-5-ylmethyloxy)indolizine-1-yl)glyoxylamide], the melting point was 206 to 209 °C (dec.). Also, the pIC50 in data set [1] is 8.15.

The compound `CCc1c(C(=O)C(N)=O)c2c(OCc3ccccc3)cccn2c1Cc1ccccc1` [Compound 35a, (3-Benzyl-8-benzyloxy-2-ethylindolizin-1-yl)glyoxylamide] gave a melting point of 188 to 189 °C. In addition, in data set [1], the pIC50 was 6.40.

The compound `CCc1c(C(=O)C(N)=O)c2c(OCC(=O)OC)cccn2c1Cc1ccc2ccccc2c1` [Compound 51g, 2-(8-(Carbomethoxymethyloxy)-2-ethyl-3-(naphth-2-ylmethyl)indolizin-1-yl)glyoxylamide] gave a melting point of 195 to 196 °C. In data set [1], the pIC50 was 6.77.
